Publication PMC10848004 (Saudi Pharmaceutical Journal : SPJ, 2024)

Assays:
[1] = tested on: glaucomatous rabbit eye model; test: Antiglaucoma activity in vivo, IOP lowering, topical; details: 1 % concentration, at 1 h post-administration
CYP2D6 = CYP2D6 (Homo sapiens, UniProt P10635); test: CYP inhibition in HLM, CYP2D6; format: in vitro ADME
Sequence of CYP2D6 (P10635 whole entry): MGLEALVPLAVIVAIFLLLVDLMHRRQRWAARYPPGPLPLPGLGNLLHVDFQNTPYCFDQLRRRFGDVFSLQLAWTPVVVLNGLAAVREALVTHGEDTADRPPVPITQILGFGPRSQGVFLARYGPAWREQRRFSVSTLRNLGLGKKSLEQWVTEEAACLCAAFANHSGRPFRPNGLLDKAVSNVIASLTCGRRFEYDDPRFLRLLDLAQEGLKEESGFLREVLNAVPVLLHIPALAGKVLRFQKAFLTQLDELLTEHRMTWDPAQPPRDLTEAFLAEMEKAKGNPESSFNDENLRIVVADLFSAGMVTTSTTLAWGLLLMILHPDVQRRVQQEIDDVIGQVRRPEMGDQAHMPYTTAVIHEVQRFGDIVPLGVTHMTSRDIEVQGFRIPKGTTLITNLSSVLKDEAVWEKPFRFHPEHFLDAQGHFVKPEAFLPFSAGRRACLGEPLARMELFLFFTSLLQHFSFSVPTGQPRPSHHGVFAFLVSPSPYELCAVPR

CCN[C@H]1CN(CCCOC)S(=O)(=O)c2sc(S(N)(=O)=O)cc21 [BRZ, brinzolamide]
maximal intraocular pressure lowering effect [1]: around 5 mm Hg

COc1ccc2c(c1)[C@]13CCCC[C@@H]1[C@H](C2)N(C)CC3 [Dextromethorphan]
IC50 (CYP2D6): 1.34 µM
